# Assay results reported in patent US20250179027A1, “CYCLOALKYL OR HETEROCYCLYL SUBSTITUTED HETEROARYL COMPOUND, AND COMPOSITION AND USE THEREOF” (Shenzhen TargetRx, Inc., priority 2022, published 2025).
# Tests used:
# TEC = biological target: T1, TEC (Homo sapiens, UniProt P42680); assay: HTRF kinase activity inhibition assay, TEC; format: biochemical; conditions: HTRF TK kit
# T1 construct: purchased Carna 08-182
# T1 sequence (P42680 1-631): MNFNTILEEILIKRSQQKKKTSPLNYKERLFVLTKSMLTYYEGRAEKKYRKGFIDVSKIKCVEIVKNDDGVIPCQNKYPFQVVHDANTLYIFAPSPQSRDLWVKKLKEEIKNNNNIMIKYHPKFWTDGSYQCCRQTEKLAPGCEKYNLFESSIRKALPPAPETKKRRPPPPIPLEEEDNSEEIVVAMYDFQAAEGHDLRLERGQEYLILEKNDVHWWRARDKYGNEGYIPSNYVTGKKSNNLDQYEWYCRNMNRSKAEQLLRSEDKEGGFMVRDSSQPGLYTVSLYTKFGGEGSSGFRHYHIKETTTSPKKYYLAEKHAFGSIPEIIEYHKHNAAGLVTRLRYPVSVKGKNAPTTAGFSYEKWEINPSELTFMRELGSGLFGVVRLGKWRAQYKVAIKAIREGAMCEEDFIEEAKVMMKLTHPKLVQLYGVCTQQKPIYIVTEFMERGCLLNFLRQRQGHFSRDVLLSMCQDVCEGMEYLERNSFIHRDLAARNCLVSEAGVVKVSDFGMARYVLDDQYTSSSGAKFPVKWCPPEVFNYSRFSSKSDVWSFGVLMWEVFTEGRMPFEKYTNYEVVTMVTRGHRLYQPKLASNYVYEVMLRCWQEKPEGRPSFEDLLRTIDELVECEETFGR
# Text: (§1) In this assay, the HTRF TK Kit (Catalog No. 62TKOPEC) provided by Cisbio was used to detect the inhibitory activity of compounds on BTK kinase and BTK C481S kinase and the selectivity of compounds relative to EGFR, ITK and TEC kinases.
# (§2) Reagents and consumables: BTK kinase (Invitrogen, Catalog No. PV3587), BTK C481S (Carna, Product No. 08-547), ITK (Carna, Product No. 08-181), EGFR (Carna, Product No. 08-115), TEC (Carna, Product No. 08-182), HTRF-TK kit (Cisbio, Product No. 62TKOPEC), MgCl2 (Sigma, Product No. M1028), MnCl2 (Sigma, Product No. M1787), DTT (Sigma, Product No. D0632), ATP (Sigma, Product No. A7699-1 g), DMSO (Sigma, Product No. D2650), 384-well plate (PE, Product No. 6008280).
# (§3) The entire operation steps were carried out on ice, and the total reaction volume was 10 μL. The compound (4 μL), substrate and ATP (4 μL), kinase (2 μL) were added in sequence to a 384-well plate, and shaked for 30 seconds. After an appropriate time at room temperature, the detection reagent was added. After 1 hour at room temperature, the plate was detected with a microplate reader. The specific steps were as follows: • a) 1× kinase buffer solution required for kinase detection was calculated according to the amount of the detection compound, and prepared as needed; • b) compounds with 2.5×working concentration were prepared, the 100 times gradient concentration solution of compounds was diluted by 4 μL to the desired concentration, mixed well, and added to each well at 4 μL per well; • c) 5×working concentration of substrate and ATP were prepared, mixed in a ratio of 1:1 before adding to a 384-well plate, and added to each well at 4 μL per well; • d) 5×working concentration of kinase was prepared, and 2 μL was added to each well; • e) the plate was shaked on a microplate oscillator for 30 seconds, sealed with a sealing membrane, and reacted at room temperature for an appropriate time; • f) 4×working concentrations of streptavidin XL-665 and TK antibody-cryptate compound were prepared, mixed in a ratio of 1:1 before adding to a 384-well plate, and added to each well at 10 μL per well; • g) the plate was read after reacting at room temperature for 1 hour; • h) the wells with only substrate, ATP and 1% DMSO added but no kinase were blank control wells, and the wells with only substrate, ATP, 1% DMSO and kinase were positive control wells.
# (§4) Readings: The values of 620 nm (cryptate) and 665 nm (XL665) were read with a BioTek Synerg Neo2 microplate reader, the ratio of 665/620 per well was calculated, and the data were exported. Data analysis: IC50 was calculated using GraphPad Prism 7.0 software. The following nonlinear fitting formula was used to obtain the IC50 (half inhibitory concentration) of compounds:
# (§5) [formula] • X: Compound concentration log value • Y: Inhibition rate (% inhibition)
# (§6) The kinase inhibition rate (% inhibition rate) was calculated as: […]
# BTK kinase = biological target: T2, BTK kinase (Homo sapiens, UniProt Q06187); assay: HTRF kinase activity inhibition assay, BTK; format: biochemical; conditions: HTRF TK kit
# T2 construct: purchased Invitrogen PV3587
# Text: as §1, §2, §3, §4, §5, §6
# EGFR = biological target: T3, EGFR (Homo sapiens, UniProt P00533); assay: HTRF kinase activity inhibition assay, EGFR; format: biochemical; conditions: HTRF TK kit
# T3 construct: purchased Carna 08-115
# Text: as §1, §2, §3, §4, §5, §6
# ITK = biological target: T4, ITK (Homo sapiens, UniProt Q08881); assay: HTRF kinase activity inhibition assay, ITK; format: biochemical; conditions: HTRF TK kit
# T4 construct: purchased Carna 08-181
# T4 sequence (Q08881 1-620): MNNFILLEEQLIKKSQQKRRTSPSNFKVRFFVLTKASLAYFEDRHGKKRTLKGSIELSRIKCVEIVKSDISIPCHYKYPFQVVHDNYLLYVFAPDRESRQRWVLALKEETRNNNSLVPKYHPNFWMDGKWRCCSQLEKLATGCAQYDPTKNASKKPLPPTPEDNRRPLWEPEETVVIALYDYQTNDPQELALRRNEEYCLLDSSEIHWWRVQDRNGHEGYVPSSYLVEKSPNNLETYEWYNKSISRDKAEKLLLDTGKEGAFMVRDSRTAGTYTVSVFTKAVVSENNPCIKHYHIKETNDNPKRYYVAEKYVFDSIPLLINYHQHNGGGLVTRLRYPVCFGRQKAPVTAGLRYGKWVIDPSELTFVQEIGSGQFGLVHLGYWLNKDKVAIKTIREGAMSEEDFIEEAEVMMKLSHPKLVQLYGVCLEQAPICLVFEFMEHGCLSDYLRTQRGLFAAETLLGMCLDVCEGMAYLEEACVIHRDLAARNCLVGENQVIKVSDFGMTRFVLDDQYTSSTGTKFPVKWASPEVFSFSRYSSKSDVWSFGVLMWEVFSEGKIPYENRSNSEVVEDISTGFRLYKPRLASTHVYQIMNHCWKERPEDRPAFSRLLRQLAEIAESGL
# Text: as §1, §2, §3, §4, §5, §6
# [1] = biological target: T5, phosphorylated BTK Y223 in NIH/3T3 BTK WT cells (Homo sapiens, UniProt Q06187); assay: Phosphor-BTK(Y223) assay, NIH/3T3 BTK WT cells; format: cell-based; conditions: phosphorylated BTK Y223, NIH/3T3 BTK WT cells; read-out: NIH/3T3 BTK-WT pBTK IC50
# T5 construct: expressed in transfected cells; host or cells: NIH/3T3 (mouse fibroblasts) engineered to express BTK WT
# Protocol: The purpose of this assay is to simply, quickly and directly detect the endogenous level of BTK in cells. The specific assay steps are as follows: Day 1: NIH/3T3 BTK WT cells (7.5 k/well) and NIH/3T3 BTK C481S cells (10 k/well) were plated in 96-well plates, respectively, and cultured overnight at 37° C. and 5% CO2.
# • 1. A 3-fold final concentration gradient dilution of the compound was prepared, and 50 μL was added to 100 μL of cell culture; 0.5% DMSO was used as a positive control for cell growth. • 2. The plate was incubated at 37° C., 5% CO2 for 0.5 h. • 3. Na3VO4 with a final concentration of 1 mM was added, and incubated at 37° C. and 5% CO2 for 2 hours. • 4. During the incubation, the following reagents were prepared: 1× added lysis buffer: 3 vol ddH2O+1 vol 4× lysis buffer+100× blocking reagent. p-BTK (Y223) cryptate-antibody and p-BTK (Y223) d2-antibody working solutions: 1 volume of each cryopreserved antibody (stored at −20° C.) was added to 19 times volumes of assay buffer (stored at 4° C.). • 5. After the incubation, the medium was removed and 50 μL of 1× added lysis buffer was added; The mixture was centrifuged at 500 rpm for 30 min at room temperature. • 6. The lysate was mixed well and 16 μL was transferred to a 384-well plate; 1× added lysis buffer was used as a blank control. • 7. 4 μL of pre-mixed working solutions of the two antibodies (cryptate Ab:d2 Ab=1:1) were added and the plate was sealed. • 8. The plate was incubated overnight at room temperature.
# Biotek cytation3.0 microplate reader was used to read the plate at 665 nm and 620 nm, and the ratio of 665/620 nm per well was calculated.
# IC50 was calculated using GraphPad Prism 7.0 software.
# The following nonlinear fitting formula was used to obtain the phosphorylated BTK Y223 IC50 (half phosphorylation inhibitory concentration) of the compounds:
# as §5
# The formula for calculating cell phosphorylation inhibition rate (% inhibition rate) was: […]
# T5 sequence (Q06187 whole entry): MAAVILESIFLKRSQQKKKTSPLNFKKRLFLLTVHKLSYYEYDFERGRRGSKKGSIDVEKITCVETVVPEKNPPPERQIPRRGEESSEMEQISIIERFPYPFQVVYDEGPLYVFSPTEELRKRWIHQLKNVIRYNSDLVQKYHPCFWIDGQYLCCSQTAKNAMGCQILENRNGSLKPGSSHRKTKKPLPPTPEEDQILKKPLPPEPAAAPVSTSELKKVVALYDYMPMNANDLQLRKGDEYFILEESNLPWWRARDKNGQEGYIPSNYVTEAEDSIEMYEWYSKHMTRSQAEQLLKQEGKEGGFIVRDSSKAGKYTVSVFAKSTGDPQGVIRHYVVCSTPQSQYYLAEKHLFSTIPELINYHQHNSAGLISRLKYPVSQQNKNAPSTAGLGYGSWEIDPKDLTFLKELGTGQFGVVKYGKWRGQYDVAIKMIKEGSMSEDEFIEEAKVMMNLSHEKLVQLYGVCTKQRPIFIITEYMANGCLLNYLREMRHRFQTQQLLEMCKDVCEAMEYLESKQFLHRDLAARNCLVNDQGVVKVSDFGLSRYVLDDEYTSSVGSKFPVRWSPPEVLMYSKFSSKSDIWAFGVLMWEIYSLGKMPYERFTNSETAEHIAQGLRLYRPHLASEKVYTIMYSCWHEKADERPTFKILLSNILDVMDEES
# T2 sequence (Q06187 whole entry): as above
# T3 sequence (P00533 669-1210 limits assumed): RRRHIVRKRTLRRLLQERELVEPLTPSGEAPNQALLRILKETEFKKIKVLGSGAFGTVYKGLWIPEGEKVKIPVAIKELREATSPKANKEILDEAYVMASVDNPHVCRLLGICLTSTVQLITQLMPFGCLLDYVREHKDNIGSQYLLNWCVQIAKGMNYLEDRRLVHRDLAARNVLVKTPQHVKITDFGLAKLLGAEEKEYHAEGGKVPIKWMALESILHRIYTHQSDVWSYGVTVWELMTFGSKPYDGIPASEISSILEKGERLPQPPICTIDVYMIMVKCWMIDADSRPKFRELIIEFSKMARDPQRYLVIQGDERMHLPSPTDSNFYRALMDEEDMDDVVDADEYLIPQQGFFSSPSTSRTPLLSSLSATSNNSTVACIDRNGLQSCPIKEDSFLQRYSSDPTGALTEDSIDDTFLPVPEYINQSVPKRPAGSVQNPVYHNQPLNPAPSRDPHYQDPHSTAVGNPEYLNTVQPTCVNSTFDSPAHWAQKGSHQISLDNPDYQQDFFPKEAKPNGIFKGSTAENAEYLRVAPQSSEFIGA
IC50 (TEC) [nM],IC50 (BTK kinase) [nM],IC50 (EGFR) [nM],IC50 (ITK) [nM],IC50 [1] [nM],Structure (SMILES)
100 to 1000,≤ 10,50 to 100,> 10000,≤ 25,"COc1ccc(F)cc1C(=O)NCc1ccc(-c2nn(C3CCC(O)C3)c3ncnc(N)c23)cc1 (single isomer, unassigned) [Example 33, N-(4-(4-amino-1-(3-hydroxycyclopentanyl)-1H-pyrazolo[3,4-d]pyrimidin-3-yl)benzyl)-5-fluoro-2-methoxybenzamide]"
100 to 1000,≤ 10,50 to 100,> 10000,≤ 25,"COc1ccc(F)cc1C(=O)NCc1ccc(-c2nn(C3CCC(O)C3)c3ncnc(N)c23)cc1 (single isomer, unassigned) [Example 34, N-(4-(4-amino-1-(3-hydroxycyclopentanyl)-1H-pyrazolo[3,4-d]pyrimidin-3-yl)benzyl)-5-fluoro-2-methoxybenzamide]"
100 to 1000,≤ 10,50 to 100,> 10000,≤ 25,"COc1ccc(F)cc1C(=O)NCc1ccc(-c2nn(C3CCC(O)C3)c3ncnc(N)c23)cc1 (single isomer, unassigned) [Example 35, N-(4-(4-amino-1-(3-hydroxycyclopentanyl)-1H-pyrazolo[3,4-d]pyrimidin-3-yl)benzyl)-5-fluoro-2-methoxybenzamide]"
100 to 1000,≤ 10,1000 to 10000,> 10000,≤ 25,"COc1ccc(F)cc1C(=O)NCc1ccc(-c2nn(C3CCC(O)C3)c3ncnc(N)c23)cc1 (single isomer, unassigned) [Example 36, N-(4-(4-amino-1-(3-hydroxycyclopentanyl)-1H-pyrazolo[3,4-d]pyrimidin-3-yl)benzyl)-5-fluoro-2-methoxybenzamide]"
